Experimental data from ChEMBL document CHEMBL5150072, “Discovery and Crystallographic Studies of Nonpeptidic Piperazine Derivatives as Covalent SARS-CoV-2 Main Protease Inhibitors” (J Med Chem, 2022).
Active and inactive are the calls of the source. The rule behind the calls is not given here.

Experiments:
[1] = Cytotoxicity against african green monkey Vero E6 cells; assay type: toxicity, cell-based, Vero C1008; conditions: chlorocebus sabaeus
[2] = molecular target: T1, Replicase polyprotein 1ab (Severe acute respiratory syndrome coronavirus 2, UniProt P0DTD1); experiment: Inhibition of SARS-CoV-2 main protease using MCA-AVLQSGFR-Lys(Dnp)-Lys-NH2 as substrate preincubated for 30 mins followed by substrate addition and measured every 10 sec for 10 mins by FRET assay
SARS-CoV-2 [3] = experiment: Antiviral activity against SARS-CoV-2 infected in Vero E6 cells preincubated for 1 hr followed by methylcellulose addition and measured after 25 to 26 hrs by EliSpot reader based analysis; assay type: functional, organism-based; conditions: Severe acute respiratory syndrome coronavirus 2, Vero C1008
[4] = Cytotoxicity against african green monkey Vero E6 cells assessed as reduction in cell viability after 26 hrs by MTS assay; assay type: toxicity, cell-based, Vero C1008; conditions: chlorocebus sabaeus
Procathepsin L = Procathepsin L (Homo sapiens, UniProt P07711); experiment: Inhibition of human cathepsin L using Z-Leu-Arg-AMC as substrate by […] assay; assay type: toxicity
Sequence of Procathepsin L (P07711 whole entry): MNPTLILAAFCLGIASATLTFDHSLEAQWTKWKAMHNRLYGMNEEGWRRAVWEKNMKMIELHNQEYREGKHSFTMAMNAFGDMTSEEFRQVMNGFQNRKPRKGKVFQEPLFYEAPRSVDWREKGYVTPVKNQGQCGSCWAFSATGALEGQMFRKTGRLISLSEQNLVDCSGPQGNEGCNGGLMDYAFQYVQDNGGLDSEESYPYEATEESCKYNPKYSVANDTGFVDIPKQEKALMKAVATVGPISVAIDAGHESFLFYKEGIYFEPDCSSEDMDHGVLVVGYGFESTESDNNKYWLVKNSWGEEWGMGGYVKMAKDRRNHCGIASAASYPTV

Cathepsin K = molecular target: T2, Cathepsin K (Homo sapiens, UniProt P43235); experiment: Inhibition of human cathepsin K using Ac-LR-AFC as substrate by […] assay; assay type: toxicity
T2 sequence (P43235 whole entry): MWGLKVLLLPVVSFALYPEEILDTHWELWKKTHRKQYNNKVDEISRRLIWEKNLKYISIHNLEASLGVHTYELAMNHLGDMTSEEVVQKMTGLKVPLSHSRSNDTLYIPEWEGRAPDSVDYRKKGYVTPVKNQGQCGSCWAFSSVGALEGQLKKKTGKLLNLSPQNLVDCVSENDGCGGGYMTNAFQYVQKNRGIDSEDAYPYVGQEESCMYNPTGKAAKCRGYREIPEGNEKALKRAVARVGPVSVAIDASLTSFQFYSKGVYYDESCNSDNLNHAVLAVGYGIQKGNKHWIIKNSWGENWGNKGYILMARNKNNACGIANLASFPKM

[5] = molecular target: Replicase polyprotein 1ab (Severe acute respiratory syndrome coronavirus 2) (UniProt P0DTD1); experiment: Irreversible inhibition of SARS-CoV-2 main protease assessed as ratio of Kinact/Ki incubated for 60 mins by MS analysis
Caspase-3 = molecular target: T3, Caspase-3 (Homo sapiens, UniProt P42574); experiment: Inhibition of human caspase 3 using Ac-Asp-Glu-Val-Asp-pNA as substrate by […] assay; assay type: toxicity
T3 sequence (P42574 whole entry): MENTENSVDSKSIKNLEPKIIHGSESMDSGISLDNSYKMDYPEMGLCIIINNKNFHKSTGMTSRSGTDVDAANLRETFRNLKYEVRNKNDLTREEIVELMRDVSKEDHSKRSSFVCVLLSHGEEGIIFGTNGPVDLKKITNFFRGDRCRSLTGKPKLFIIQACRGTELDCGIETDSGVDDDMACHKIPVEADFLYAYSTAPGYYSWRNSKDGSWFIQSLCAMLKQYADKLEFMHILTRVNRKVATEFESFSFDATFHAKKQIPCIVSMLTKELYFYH

Cathepsin B = Cathepsin B (Homo sapiens, UniProt P07858); experiment: Inhibition of human cathepsin B using Z-Leu-Arg-AMC as substrate by […] assay; assay type: toxicity
[6] = molecular target: Replicase polyprotein 1ab (Severe acute respiratory syndrome coronavirus 2) (UniProt P0DTD1); experiment: Potency index, ratio of IC50 for MCULE-5948770040 to IC50 for test compound for inhibition of SARS-COV-2 main protease
[7] = molecular target: Replicase polyprotein 1ab (Severe acute respiratory syndrome coronavirus 2) (UniProt P0DTD1); experiment: Covalent inhibition of SARS-CoV-2 main protease assessed as protein-compound adduct formation incubated for 30 mins by MALDI-TOF analysis
Cathepsin F = molecular target: T4, Cathepsin F (Homo sapiens, UniProt Q9UBX1); experiment: Inhibition of human cathepsin F using Z-Phe-Arg-AMC as substrate by […] assay; assay type: toxicity
T4 sequence (Q9UBX1 whole entry): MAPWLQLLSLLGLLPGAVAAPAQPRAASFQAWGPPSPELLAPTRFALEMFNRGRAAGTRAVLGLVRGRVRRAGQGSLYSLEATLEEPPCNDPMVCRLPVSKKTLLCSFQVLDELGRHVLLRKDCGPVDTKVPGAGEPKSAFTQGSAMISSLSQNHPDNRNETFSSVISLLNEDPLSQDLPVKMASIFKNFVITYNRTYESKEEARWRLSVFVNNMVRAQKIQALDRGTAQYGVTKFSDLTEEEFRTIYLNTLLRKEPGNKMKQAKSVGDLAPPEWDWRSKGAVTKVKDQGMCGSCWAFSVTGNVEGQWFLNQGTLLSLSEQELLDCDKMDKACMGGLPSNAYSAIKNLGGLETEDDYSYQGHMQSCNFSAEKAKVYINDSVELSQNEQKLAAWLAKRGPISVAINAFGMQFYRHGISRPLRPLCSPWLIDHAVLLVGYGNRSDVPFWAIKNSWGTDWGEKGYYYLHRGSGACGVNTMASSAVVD

SARS-CoV-2 [8] = experiment: Antiviral activity against SARS-CoV-2 infected in Vero E6 cells; assay type: functional, organism-based; conditions: Severe acute respiratory syndrome coronavirus 2, Vero C1008
[9] = molecular target: T1, Replicase polyprotein 1ab; experiment: Inhibition of SARS-CoV-2 main protease incubated for 30 mins by FRET based assay
[10] = molecular target: T1, Replicase polyprotein 1ab; experiment: Inhibition of SARS-CoV-2 main protease
SARS-CoV-2 [11] = experiment: Antiviral activity against SARS-CoV-2 infected in Vero E6 cells assessed as reduction in virus induced cytopathic effect incubated for 3 days; assay type: functional, organism-based; conditions: Severe acute respiratory syndrome coronavirus 2, Vero C1008, 72 h
SARS-CoV-2 [12] = experiment: Antiviral activity against SARS-CoV-2 infected in VeroE6 cells measured after 24 hrs post infection by plaque assay; assay type: functional, organism-based; conditions: Severe acute respiratory syndrome coronavirus 2, Vero C1008, 24 h

SMILES | IC50 [2] [nM] | EC50 (SARS-CoV-2 [3]) [nM] | CC50 at 26 h [4] [nM] | further results
O=c1c2ccccc2[se]n1-c1ccccc1 [EBSELEN] |  |  |  | CC50 [1]: > 20000 nM
C#CC(=O)N1CCN(c2ccc(Cl)c(Cl)c2)[C@H](C(=O)NCc2cccs2)C1 | 2800 | 1370 | 11900 | 
O=C(NCc1cccs1)[C@@H]1CN(C(=O)CCl)CCN1c1ccc(Cl)c(Cl)c1 | 180 | 2640 | 12500 | IC50 (Procathepsin L): > 30000 nM; IC50 (Cathepsin K): > 30000 nM; Ratio [5]: 21500 M⁻¹ s⁻¹; IC50 (Caspase-3): > 30000 nM; IC50 (Cathepsin B): > 30000 nM; Ratio IC50 [6]: 28; inhibition [7]: Active; IC50 (Cathepsin F): > 30000 nM
O=C(NCc1cccs1)[C@@H]1CN(C(=O)c2cccnc2)CCN1c1ccc(Cl)c(Cl)c1 | 400 | 400 | > 100000 | 
CC(C)(C)[C@H](NC(=O)C(F)(F)F)C(=O)N1C[C@H]2[C@@H]([C@H]1C(=O)N[C@H](C#N)C[C@@H]1CCNC1=O)C2(C)C |  |  | > 100000 | 
C[C@H](NC(=O)[C@@H](c1cccnc1)N(C(=O)C(Cl)Cl)c1ccc(-c2ccccc2)cc1)c1ccccc1 |  |  |  | CC50 [1]: 33100 nM; EC50 (SARS-CoV-2 [8]): 670 nM; IC50 [9]: 670 nM
[2H][C@](C(=O)N[C@@H](C)c1ccc(F)cc1)(c1cccnc1)N(C(=O)C(C)=O)c1ccc2c(c1)oc1ccccc12 |  |  |  | EC50 (SARS-CoV-2 [8]): 900 nM; IC50 [10]: 8 nM
CCC(CC)COC(=O)[C@H](C)N[P@](=O)(OC[C@H]1O[C@@](C#N)(c2ccc3c(N)ncnn23)[C@H](O)[C@@H]1O)Oc1ccccc1 |  | 2270 | > 100000 | 
COc1cccc2[nH]c(C(=O)N[C@@H](CC(C)C)C(=O)N[C@@H](C[C@@H]3CCNC3=O)C(=O)CO)cc12 [PF-00835231] |  |  |  | EC50 (SARS-CoV-2 [11]): 230 nM
O=C[C@H](C[C@@H]1CCNC1=O)NC(=O)[C@H](CC1CCCCC1)NC(=O)c1cc2ccccc2[nH]1 |  |  |  | EC50 (SARS-CoV-2 [12]): 420 nM
O=C(NCc1cccs1)[C@@H]1CN(C(=O)CBr)CCN1c1ccc(Cl)c(Cl)c1 | 310 | 4240 | 6500 | Ratio IC50 [6]: 16
O=C(NCc1cccs1)[C@@H]1CN(C(=O)C(F)(F)S(=O)(=O)F)CCN1c1ccc(Cl)c(Cl)c1 | 1600 | 183000 | > 100000 | 
CC(C)(C)NC(=O)C(c1cccnc1)N(C(=O)c1ccco1)c1ccc(C(C)(C)C)cc1 (stereo unspecified) |  |  |  | EC50 (SARS-CoV-2 [8]): > 20000 nM
